The values below come from patent US5583127A, “17-iminomethylalkenyl-5 β, 14 β-androstane and 17-iminoalkyl-5 β, 14 β-androstane derivatives active on the cardiovascular system, and pharmaceutical compositions containing same” (Sigma-Tau Industrie Farmaceutiche Riunite S.p.A., priority 1993, dated 1996).

Test [1] deals with Na^+,K^+ -ATPase. To be noted: reported in literature; cited from earlier work.
For test [2] the following is noted: reported in literature; cited from earlier work.
The target of test [3] is Na^+, K^+ -ATPase receptor (Homo sapiens, UniProt P05023). Put plainly: displacement of the specific 3H-ouabain binding from the Na+,K+-ATPase receptor. Particulars: for IC50: displacement of specific 3H-ouabain binding, read-out: Binding ^3 H-Ouab. Displacement log IC50 (converted).
Test [4] relates to spontaneous hypertensive rats (MHS). Put plainly: effect of 5 week-treatment in spontaneous hypertensive rats (MHS) on the development of hypertension (SBP and HR, tail cuff). Type of test: in vivo, rat. To be noted: 10 mg/Kg/os daily in Methocel 0.5% w/v, 5 weeks. How it is done:
Systolic blood pressure (SBP) and heart rate (HR) were measured, by the tail cuff method, in young prehypertensive male rats (MHS or SHR) strains before the development of hypertension (4 weeks of age) for recording the basal values of SBP. Groups of 7 rats were formed and subdivided in control and treated groups. The compound, suspended in Methocel 0.5% (w/v), was orally given daily for at least 5 weeks to the treated groups. The control group received only Methocel. SBP and HR were measured weekly 6 and 24 hrs after treatment. After 5 weeks of treatment, when hypertension was fully developed in the control group (9 weeks of age), washout was started for at least one week, to verify whether the treatment maintained blood pressure low or reestablished the basal values. […] (Takeda K. et al., Japan J. Pharmacol., 1979, 29,171; Takeda K. et al. Japan J. Pharmacol., 1982, 32, 283; Richer C. et al. Eur. J. Pharmacol, 1978, 47,393).

In test [5] the target is purified Na^+,K^+ -ATPase (Homo sapiens, UniProt P05023). Put plainly: inhibition of the activity of the purified Na+,K+-ATPase (% hydrolysis of 32P-ATP). The format is biochemical. To be noted: read-out: Inhibitory Activity log IC50 (converted).

In general, IC50 refers to the point on the concentration scale where inhibition reaches its midpoint. The term pIC50 denotes the IC50 on a negative log10 scale, so that one unit is a factor of ten. Read a high pIC50 as a small IC50.

pIC50: −log10 of the molar value. Read-outs that look alike come from different tables or passages of the source.

With `C[C@]12CC[C@H](O)C[C@H]1CC[C@@H]1[C@@H]2CC[C@]2(C)[C@@H](C=NNC(=N)N)CC[C@]12O` [17β-guanidinoiminomethyl-5β-androstane-3β,14β-diol], in test [1], the “inhibition of Na+,K+-ATPase” value is “weak inhibitors of Na^+,K^+ -ATPase”. Besides, in test [2], the positive inotropic activity entry was “weak positive inotropic agents”.

Turning to `C[C@]12CC[C@H](O)C[C@H]1CC[C@@H]1[C@@H]2CC[C@]2(C)[C@@H](/C=C/C=N/NC(=N)N)CC[C@]12O` [Comp. I-aa, (E,E)-17β-(3-Guanidinoimino-1-propenyl)-5β-androstane-3β,14β-diol], the IC50 in test [3] is 25.1 nM. Further, the “SBP (systolic blood pressure)” value in test [4] (controls 172 +/- 3.5) is reported as 149 +/- 3.9 mm Hg. The “HR (heart rate)” value in test [4] (controls 380 +/- 9.0) is 373 +/- 10.0 beats/min.

In the case of `C[C@]12CC[C@H](O)C[C@H]1CC[C@@H]1[C@@H]2CC[C@]2(C)C(=NNC(=N)N)CC[C@]12O` [17-guanidinoimino-5β-androstane-3β,14β-diol], the “inhibition of Na+,K+-ATPase” value in test [1] was “weak inhibitors of Na^+,K^+ -ATPase”. For the same compound, the positive inotropic activity result in test [2] was “weak positive inotropic agents”.

Compound `C[C@]12CC[C@H](O)C[C@H]1CC[C@@H]1[C@@H]2CC[C@]2(C)[C@@H](CC=NOCCCN)CC[C@]12O` (mixture of isomers) [Comp. I-bg, (EZ)-17β-[2-(3-Aminopropoxyimino)ethyl]-5β-androstane-3β,14β-diol] had a negative logarithm of the IC50 (pIC50) in test [3] of 7.30. Moreover, the IC50 in test [5] (purified Na+,K+-ATPase) was 398 nM.

On to `CN(C)CCON=CC[C@H]1CC[C@]2(O)[C@@H]3CC[C@@H]4C[C@@H](O)CC[C@]4(C)[C@H]3CC[C@]12C` (mixture of isomers) [Comp. I-bh, (EZ)-17β-[2-(2-Dimethylaminoethoxyimino)ethyl]-5β-androstane-3β,14β-diol], for which the IC50 in test [3] is 39.8 nM; in test [5] (purified Na+,K+-ATPase), 631 nM.

Consider `C[C@]12CC[C@H](O)C[C@H]1CC[C@@H]1[C@@H]2CC[C@]2(C)[C@@H](CCC=NOCCN)CC[C@]12O` (mixture of isomers) [Comp. I-bm, (EZ)-17β-[3-(2-Aminoethoxyimino)propyl]-5β-androstane-3β,14β-diol], for which the 50% inhibitory concentration (IC50) in test [3] was 25.1 nM; in test [5] (purified Na+,K+-ATPase), 79.4 nM.

`CN(C)CCON=CC[C@H]1CC[C@]2(O)[C@@H]3CC[C@@H]4C[C@@H](OCCCN5CCCC5)CC[C@]4(C)[C@H]3CC[C@]12C` (mixture of isomers) [Comp. I-ci, 3β-[3-(1-Pyrrolidinyl)propoxy]-17β-[3-(EZ)-(2-dimethylamino-ethoxyimino)ethyl]-5β-androstane-14β-ol]: the pIC50 in test [3] was 7.30. For the same compound, in test [5] (purified Na+,K+-ATPase), the 50% inhibitory concentration (IC50) was 158 nM.

As for `CN(C)CCON=C/C=C/[C@H]1CC[C@]2(O)[C@@H]3CC[C@@H]4C[C@@H](OCCN)CC[C@]4(C)[C@H]3CC[C@]12C` (mixture of isomers) [Comp. I-cc, 3β-(2-Aminoethoxy)-17β-[3-(EZ)-(2-dimethylaminoethoxyimino)-1-(E)-propenyl]-5_62-androstane-14β-ol], the figures for the 50% inhibitory concentration (IC50) in test [3] and in test [5] (purified Na+,K+-ATPase) were 20 nM and 31.6 nM, respectively.

As to `C[C@]12CC[C@H](O)C[C@H]1CC[C@@H]1[C@@H]2CC[C@]2(C)[C@@H](/C=C/C=N/NC3=NCC(=O)N3)CC[C@]12O` [Comp. I-af, (E,E)-17β-[3-(5-Oxo-2-imidazolin-2-yl)hydrazono-1-propenyl]-5β-androstane-3β,14β-diol], the IC50 was 2000 nM in test [3] and 39800 nM in test [5] (purified Na+,K+-ATPase).

On to `CN(C)CCON=C/C=C/[C@H]1CC[C@]2(O)[C@@H]3CC[C@@H]4C[C@@H](O)CC[C@]4(C)[C@H]3CC[C@]12C` (mixture of isomers) [Comp. I-aq, 17β-[3-(EZ)-(2-Dimethylaminoethoxyimino)-1-(E)-propenyl]-5β-androstane-3β,14β-diol], for which the concentration for half-maximal inhibition (IC50) is 25.1 nM in test [3] and 31.6 nM in test [5] (purified Na+,K+-ATPase).

With `C[C@]12CC[C@H](O)C[C@H]1CC[C@@H]1[C@@H]2CC[C@]2(C)[C@@](O)(/C=C/C=N/NC3=NCCN3)CC[C@]12O` [Comp. I-bp, (E,E)-17β-[3-(2-Imidazolin-2-yl)hydrazono-1-propenyl]-5β-androstane-3β,14β,17α-triol], the half-inhibitory concentration (IC50) in test [3] is 631 nM; in test [5], 7940 nM.

The compound `C[C@]12CC[C@H](O)C[C@H]1CC[C@@H]1[C@@H]2CC[C@]2(C)[C@@H](/C=C/C=N\NC3=NCCCN3)CC[C@]12O` [Comp. I-ah, 17β-[3-(Z)-(1,4,5,6-Tetrahydro-2-pyrimidinyl)hydrazono-1-(E)-propenyl]-5β-androstane-3β,14β-diol] had a pIC50 in test [3] of 6.10. Also, the IC50 in test [5] is 7940 nM.

Consider `C[C@]12CC[C@H](OCCCN)C[C@H]1CC[C@@H]1[C@@H]2CC[C@]2(C)[C@@H](/C=C/C=N/NC(=N)N)CC[C@]12O` [qomp. I-cd, (E,E)-3β-(3-Aminopropoxy)-17β-(3-guanidinoimino-1-propenyl)-5β-androstane-3β,14β-diol], for which the IC50 in test [3] is 15.8 nM; in test [5] (purified Na+,K+-ATPase), 79.4 nM.

Take `C[C@]12CC[C@H](O)C[C@H]1CC[C@@H]1[C@@H]2CC[C@]2(C)[C@@H](CCC=NNC(=N)N)CC[C@]12O` (mixture of isomers) [Comp. 1-bi, (EZ)-17β-(3-Guanidinoiminopropyl)-5β-androstane-3β,14β-diol]: the 50% inhibitory concentration (IC50) was 126 nM in test [3] and 2000 nM in test [5] (purified Na+,K+-ATPase).

On to `C[C@]12CC[C@H](O)C[C@H]1CC[C@@H]1[C@@H]2CC[C@]2(C)[C@@](O)(/C=C/C=N/NC(=N)N)CC[C@]12O` [Comp. 1-bo, (E,E)-17β-(3-Guanidinoimino-1-propenyl)-5β-androstane-3β,14β,17α-triol], for which the figures for the 50% inhibitory concentration (IC50) in test [3] and in test [5] (purified Na+,K+-ATPase) were 501 nM and 10000 nM, respectively.

In the case of `CN(C)CCCON=C/C=C/[C@H]1CC[C@]2(O)[C@@H]3CC[C@@H]4C[C@@H](O)CC[C@]4(C)[C@H]3CC[C@]12C` (mixture of isomers) [Comp. I-ar, 17β-[3-(3-(EZ)-Dimethylaminopropoxyimino)-1-(E)-propenyl]-5β-androstane-3β,14β-diol], the results for the 50% inhibitory concentration (IC50) in test [3] and in test [5] (purified Na+,K+-ATPase) were 63.1 nM and 126 nM, respectively.

In the case of `C[C@]12CC[C@H](OCCN3CCCC3)C[C@H]1CC[C@@H]1[C@@H]2CC[C@]2(C)[C@@H](/C=C/C=NNC(=N)N)CC[C@]12O` [Comp. I-bx, 3β-[2-(1-Pyrrolidinyl)ethoxy]-17β-(3-(E,Z)-guanidinoimino-1-(E)-propenyl)-5β-androstane-3β,14β-diol], the IC50 is 20 nM in test [3] and 126 nM in test [5] (purified Na+,K+-ATPase).

`C[C@]12CC[C@H](O)C[C@H]1CC[C@@H]1[C@@H]2CC[C@]2(C)[C@@H](CC=NOCCN)CC[C@]12O` (mixture of isomers) [Comp. I-bf, (EZ)-17β-[2-(2-Aminoethoxyimino)ethyl]-5β-androstane-3β,14β-diol]: the IC50 in test [3] is 25.1 nM; in test [5] (purified Na+,K+-ATPase), 316 nM.

Consider `C[C@]12CC[C@H](O)C[C@H]1CC[C@@H]1[C@@H]2CC[C@]2(C)[C@@H](/C=C/C=N\NC(=N)N)CC[C@]12O` [Comp. I-ab, 17β-[3-(Z)-Guanidinoimino-1-(E)-propenyl]-5β-androstane-3β,14β-diol], for which the values for the IC50 in test [3] and in test [5] were 316 nM and 3160 nM, respectively.

`C[C@]12CC[C@H](O)C[C@H]1CC[C@@H]1[C@@H]2CC[C@]2(C)[C@@H](/C=C/C=NOCCNC(=N)N)CC[C@]12O` (mixture of isomers) [Comp. I-as, 17β-[3-(EZ)-(2-Guanidinoethoxyimino)-1-(E)-propenyl]-5β-androstane-3β,14β-diol] showed a negative-log IC50 (pIC50) in test [3] of 7.00. For the same compound, in test [5] (purified Na+,K+-ATPase), the IC50 was 158 nM.
